Reference: PubChem BioAssay (NCI)
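Grown in 96-well plates, cells were treated for 48 hours with each compound at five concentrations. Insufficient inhibition: endpoint recorded as highest concentration tested. GI50 = concentration required for 50% inhibition of growth. TGI is the concentration that stops growth completely.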

What was measured:
Experiment in all cases: DTP human tumour cell line panel, 48 h
CCRF-CEM leukemia = system: CCRF-CEM leukemia
M14 melanoma = system: M14 melanoma
SK-OV-3 ovarian = system: SK-OV-3 ovarian
HS 578T breast = system: HS 578T breast
MALME-3M melanoma = system: MALME-3M melanoma
SF-295 CNS = system: SF-295 CNS
SK-MEL-2 melanoma = system: SK-MEL-2 melanoma
OVCAR-4 ovarian = system: OVCAR-4 ovarian
UO-31 renal = system: UO-31 renal
NCI-H23 lung = system: NCI-H23 lung
HT29 colon = system: HT29 colon
NCI/ADR-RES ovarian = system: NCI/ADR-RES ovarian
T-47D breast = system: T-47D breast
SK-MEL-28 melanoma = system: SK-MEL-28 melanoma
MDA-MB-435 = system: MDA-MB-435
786-0 renal = system: 786-0 renal
ACHN renal = system: ACHN renal
SN12C renal = system: SN12C renal
SF-268 CNS = system: SF-268 CNS
HCT-116 colon = system: HCT-116 colon
UACC-257 melanoma = system: UACC-257 melanoma
NCI-H460 lung = system: NCI-H460 lung
U251 CNS = system: U251 CNS
IGROV1 ovarian = system: IGROV1 ovarian
SK-MEL-5 melanoma = system: SK-MEL-5 melanoma
HCT-15 colon = system: HCT-15 colon
A498 renal = system: A498 renal
OVCAR-8 ovarian = system: OVCAR-8 ovarian
COLO 205 colon = system: COLO 205 colon
MDA-MB-231 breast = system: MDA-MB-231 breast
NCI-H522 lung = system: NCI-H522 lung
LOX IMVI melanoma = system: LOX IMVI melanoma
SW-620 colon = system: SW-620 colon
TK-10 renal = system: TK-10 renal
HL-60(TB) leukemia = system: HL-60(TB) leukemia
PC-3 prostate = system: PC-3 prostate
HCC-2998 colon = system: HCC-2998 colon
A549 NSCLC = system: A549 NSCLC
EKVX NSCLC = system: EKVX NSCLC
OVCAR-3 ovarian = system: OVCAR-3 ovarian
HOP-62 NSCLC = system: HOP-62 NSCLC
SNB-19 CNS = system: SNB-19 CNS
BT-549 breast = system: BT-549 breast
MOLT-4 leukemia = system: MOLT-4 leukemia
DU-145 prostate = system: DU-145 prostate
SR leukemia = system: SR leukemia
SF-539 CNS = system: SF-539 CNS
RPMI-8226 leukemia = system: RPMI-8226 leukemia
HOP-92 NSCLC = system: HOP-92 NSCLC
K-562 leukemia = system: K-562 leukemia
KM12 colon = system: KM12 colon
UACC-62 melanoma = system: UACC-62 melanoma
OVCAR-5 ovarian = system: OVCAR-5 ovarian
NCI-H226 lung = system: NCI-H226 lung
MCF7 breast = system: MCF7 breast
RXF 393 renal = system: RXF 393 renal

## CCCCN1CCCC[C@@H]1C(=O)N[C@H](C(=O)N(C)[C@H](C[C@@H](OC(C)=O)c1nc(C(=O)NC2CCC(C(=O)OC)CC2)cs1)C(C)C)C(C)C (some centres not stated)
CCRF-CEM leukemia
  GI50: 1100 nM
  TGI: > 25000 nM
M14 melanoma
  GI50: 983 nM
  TGI: 18100 nM
SK-OV-3 ovarian
  GI50: 2140 nM
  TGI: > 25000 nM
HS 578T breast
  GI50: 1960 nM
  TGI: > 25000 nM
MALME-3M melanoma
  GI50: 1970 nM
  TGI: > 25000 nM
SF-295 CNS
  GI50: 1010 nM
  TGI: 8060 nM
SK-MEL-2 melanoma
  GI50: 5280 nM
  TGI: > 25000 nM
OVCAR-4 ovarian
  GI50: 3950 nM
  TGI: > 25000 nM
UO-31 renal
  GI50: 7060 nM
  TGI: > 25000 nM
NCI-H23 lung
  GI50: 1500 nM
  TGI: > 25000 nM
HT29 colon
  GI50: 960 nM
  TGI: 13600 nM
NCI/ADR-RES ovarian
  GI50: 3530 nM
  TGI: > 25000 nM
T-47D breast
  GI50: 1620 nM
  TGI: > 25000 nM
SK-MEL-28 melanoma
  GI50: 17900 nM
  TGI: > 25000 nM
MDA-MB-435
  GI50: 224 nM
  TGI: 736 nM
786-0 renal
  GI50: 1500 nM
  TGI: > 25000 nM
ACHN renal
  GI50: 2390 nM
  TGI: > 25000 nM
SN12C renal
  GI50: 2150 nM
  TGI: > 25000 nM
SF-268 CNS
  GI50: 2290 nM
  TGI: > 25000 nM
HCT-116 colon
  GI50: 1000 nM
  TGI: > 25000 nM
UACC-257 melanoma
  GI50: 2420 nM
  TGI: > 25000 nM
NCI-H460 lung
  GI50: 1080 nM
  TGI: > 25000 nM
U251 CNS
  GI50: 1180 nM
  TGI: > 25000 nM
IGROV1 ovarian
  GI50: 1880 nM
  TGI: > 25000 nM
SK-MEL-5 melanoma
  GI50: 1220 nM
  TGI: > 25000 nM
HCT-15 colon
  GI50: 851 nM
  TGI: 16800 nM
A498 renal
  GI50: 6350 nM
  TGI: > 25000 nM
OVCAR-8 ovarian
  GI50: 2100 nM
  TGI: > 25000 nM
COLO 205 colon
  GI50: 1260 nM
  TGI: 11500 nM
MDA-MB-231 breast
  GI50: 1890 nM
  TGI: 18200 nM
NCI-H522 lung
  GI50: 897 nM
  TGI: 7040 nM
LOX IMVI melanoma
  GI50: 1360 nM
  TGI: > 25000 nM
SW-620 colon
  GI50: 1060 nM
  TGI: > 25000 nM
TK-10 renal
  GI50: > 25000 nM
  TGI: > 25000 nM
HL-60(TB) leukemia
  GI50: 732 nM
  TGI: 2170 nM
PC-3 prostate
  GI50: 1410 nM
  TGI: > 25000 nM
HCC-2998 colon
  GI50: 4020 nM
  TGI: > 25000 nM
A549 NSCLC
  GI50: 1680 nM
  TGI: > 25000 nM
EKVX NSCLC
  GI50: 1150 nM
  TGI: > 25000 nM
OVCAR-3 ovarian
  GI50: 1070 nM
  TGI: > 25000 nM
HOP-62 NSCLC
  GI50: 2350 nM
  TGI: > 25000 nM
SNB-19 CNS
  GI50: 1830 nM
  TGI: > 25000 nM
BT-549 breast
  GI50: 1400 nM
  TGI: > 25000 nM
MOLT-4 leukemia
  GI50: 1180 nM
  TGI: > 25000 nM
DU-145 prostate
  GI50: 1310 nM
  TGI: > 25000 nM
SR leukemia
  GI50: 242 nM
  TGI: > 25000 nM
SF-539 CNS
  GI50: 1490 nM
  TGI: 11800 nM
RPMI-8226 leukemia
  GI50: 1100 nM
  TGI: > 25000 nM
HOP-92 NSCLC
  GI50: 1130 nM
  TGI: > 25000 nM
K-562 leukemia
  GI50: 691 nM
  TGI: > 25000 nM
KM12 colon
  GI50: 1070 nM
  TGI: > 25000 nM
UACC-62 melanoma
  GI50: 1060 nM
  TGI: > 25000 nM
OVCAR-5 ovarian
  GI50: 4750 nM
  TGI: > 25000 nM
NCI-H226 lung
  GI50: 3840 nM
  TGI: > 25000 nM
MCF7 breast
  GI50: 806 nM
  TGI: > 25000 nM
RXF 393 renal
  GI50: 995 nM
  TGI: 11600 nM
